Source: PMC6222829, “Synthesis, Molecular Docking and Anticancer Activity of Diflunisal Derivatives as Cyclooxygenase Enzyme Inhibitors” (Molecules : A Journal of Synthetic Chemistry and Natural …, 2018)
“Also recorded” adds a separate entry of the source.

Key:
HEK293 cell line [1] = assay: MTS cytotoxicity assay, HEK293; assay type: cell-based, human; settings: normal cell line; for IC50: Homo sapiens, HEK293, MTS assay, 72 h incubation
Protocol: (§1) In this project, the colorectal cancer cell line HCT116 (ATCC® CCL-247™), […] prostate cancer cell line PC-3 (ATCC® CRL-1435™), breast cancer cell lines T47D (ATCC® HTB-133™), MCF7 (ATCC® HTB-22™) and finally, epithelial embryonic kidney cell line HEK293 (ATCC® CRL-1573™) were used. All media were completed with %10 fetal bovine serum (FBS) and %1 penicillin streptomycin amphotericin (PSA). All cells were cultured periodically at 37 °C, 5% (v/v) CO2 and 95% (v/v) air in T-75 flasks. Different media were used for the different cell lines based on ATCC standards: MCF7 and HEK293 cell lines were cultured in DMEM High Mmedium (ATCC, 30-2003); T47D and PC-3 cell lines were cultured in RPM 1640 medium (ATCC, 30-2001); HCT116 cell line was cultured in DMEM F12 medium (ATCC, 30-2006). RPM 1640 medium was further completed with 0.2 unit/mL bovine insulin for the T47D cell line. Cells were passaged when they reached %80 confluency in order to support proliferation.
(§2) The effects of the synthesized compounds on the cell viability were tested. Stock solutions for each compound were prepared by measuring 20 mg of each compound and dissolving it in 1 mL DMSO to a final concentration of […], followed by filtration through a 0.2-μm filter (Sartorius AG, Gottingen, Germany). Then stock solutions were diluted as 1/10, 1/100 and 1/1000 in the designated media and applied on the cell lines. In order to determine the effect of DMSO itself, the same dilutions were performed by using DMSO, only and applied on the cell lines. Cell densities used for each cell line in 96 well plate were as follows: for PC-3, HCT116 and HEK293 cell lines 5000 cells/well; for T47D cell lines 20,000 cells/well. Cell viability was measured by the MTS cytotoxicity assay (CellTiter96 AqueousOne Solution; Promega, Southampton, UK) according to the manufacturer’s instructions. 3-(4,5-Dimethylthiazol-2-yl)-5-(3-carboxymethoxyphenyl)-2-(4-sulfo-phenyl)-2H-tetrazolium (MTS) is a yellow tetrazolium salt which is catabolized to formazan by dehydrogenase enzyme in the mitochondria of the living cells. Formazan is a purple compound and the detection in this assay is based on the measurement of formazan compounds by an ELISA plate reader. After incubating the cells for 72 h, 10 µL MTS reagent and 100 µL designated medium was given to the cells followed by 2 h of incubation at 37 °C. Thereafter, the absorbance at 490 nm was measured by an ELISA plate reader. (BioTek Instruments, Inc., Winooski, VT, USA). The activity doses of the compounds were determined according to 50% cell death rate when compared to DMSO, only after 72 h of incubation. […] IC50 values are calculated by the GraphPad prism software.

PC-3 cell line [2] = assay: MTS cytotoxicity assay, PC-3; assay type: cell-based, human; set-up: key to IC50 PC-3: PCV: Promoting cell viability; NSC: No significant change; settings: for IC50: Homo sapiens, PC-3
Protocol: as §1, §2

PC-3 cell line [3] = assay: Annexin V/PI apoptosis assay, PC-3; assay type: cell-based, human; settings: FITC-Annexin V/PI flow cytometry
Protocol: (§3) Evaluation of the effect of the synthesized compounds on apoptosis was determined by the FITCH-AnnexinV/PI protocol. Damaged cell membrane of necrotic cell enables propidium iodide (PI) to bind DNA and induces a red fluorescence, although it is excluded by non-damaged cells, select live and apoptotic cells. FITCH-Annexin V has the ability to bind to phosphatidylserine which is a specific marker of apoptosis. […] The lower left panel of the quadrant of the cytograms indicates live cells due to exclusion of PI and non-bound Annexin V.
(§4) The upper left panel of the cytogram represents necrotic cells which are positive for PI. Each cytogram of each cell was analyzed and a histogram graph was drawn for further visual information.
(§5) Determination of IC50 values was followed by the investigation of effect of the synthesized compounds on apoptosis. Cells were seeded into six well plates at densities of 15,000 cells/well (PC-3, HCT116 and HEK293 cell lines) and 60,000 cells/well (T47D cell lines). After the treatment cells were harvested and washed with ice cold PBS. 1 × Annexin-binding buffer was prepared while the cells were being washed. […] The incubation step was followed by adding 2 µL of the 100 µg/mL PI working solution to the proper groups then the fluorescence was observed by flow cytometry.

T47D cell line [4] = assay: MTS cytotoxicity assay, T47D; assay type: cell-based, human; set-up: key to IC50 T47D: PCV: Promoting cell viability; NSC: No significant change; settings: for IC50: Homo sapiens, T47D
Protocol: as §1, §2

HEK293 cell line [5] = assay: Annexin V/PI apoptosis assay, HEK293; assay type: cell-based; settings: FITC-Annexin V/PI flow cytometry
Protocol: as §3, §4
Determination of IC50 values was followed by the investigation of effect of the synthesized compounds on apoptosis. Cells were seeded into six well plates at densities of 15,000 cells/well (PC-3, HCT116 and HEK293 cell lines) and 60,000 cells/well (T47D cell lines). After the treatment cells were harvested and washed with ice cold PBS. 1 × Annexin-binding buffer was prepared while the cells were being washed. Working solution of PI (100 µg/mL) was prepared as well by diluting 5 µL of the 1 mg/mL PI stock solution in 45 µL 1 × Annexin-binding buffer. After the precipitation of the cells, they were resuspended in 500 µL 1 × Annexin-binding buffer. Resuspended cells were separated into four groups (Annexin V, PI, Annexin V + PI and NC) each containing 100 µL of suspension. Five µL of the Annexin V conjugate was added to the proper groups. Samples were incubated for 15 min at room temperature. The incubation step was followed by adding 2 µL of the 100 µg/mL PI working solution to the proper groups then the fluorescence was observed by flow cytometry.

MCF7 cell line = assay: MTS cytotoxicity assay, MCF7; assay type: cell-based; settings: Homo sapiens, 72 h incubation
Protocol: as §1, §2

HCT116 cell line = assay: MTS cytotoxicity assay, HCT116; assay type: cell-based, human
Protocol: as §1, §2

T47D cell line [6] = assay: Annexin V/PI apoptosis assay, T47D; assay type: cell-based, human; settings: FITC-Annexin V/PI flow cytometry
Protocol: as §3, §4, §5

SMILES | IC50 (HEK293 cell line [1]) [µM] | anticancer activity against PC-3 (in words) (PC-3 cell line [2]) | IC50 (PC-3 cell line [2]; MTS assay, 72 h incubation) [µM] | cytotoxic effect on HEK293 (in words) (HEK293 cell line [1]) | apoptosis / necrosis, HEK293 (HEK293 cell line [5]) | IC50 (T47D cell line [4]; MTS assay, 72 h incubation) [µM] | further results
O=C(NNC(=S)Nc1cccc(Cl)c1)c1cc(-c2ccc(F)cc2F)ccc1O [Compound 5] | 44.4 |  |  |  |  |  | 
CCc1ccc(NC(=S)NNC(=O)c2cc(-c3ccc(F)cc3F)ccc2O)cc1 [Compound 10, 2-[(2′,4′-Difluoro-4-hydroxybiphenyl-3-yl)carbonyl]-N-(4-ethylphenyl)hydrazine carbothioamide] | 94 ± 3.74 | displayed anti-tumourigenic activity | 11.7 ± 2.6 | did not show cytotoxic effects | slight insignificant increase in necrosis; also recorded: did not result in apoptosis |  | apoptosis / necrosis, PC-3 (PC-3 cell line [3]): increase of late apoptosis markers; also recorded: undergo apoptosis highly; IC50 T47D (T47D cell line [4]; MTS assay, 72 h incubation): NSC
O=C(NNC(=S)Nc1cccc(Br)c1)c1cc(-c2ccc(F)cc2F)ccc1O [Compound 6, N-(3-Bromophenyl)-2-[(2′,4′-difluoro-4-hydroxybiphenyl-3-yl)carbonyl]hydrazine carbothioamide] | 93 ± 3.43 | displayed anti-tumourigenic activity | 41.8 ± 3.4 | did not show cytotoxic effects | did not result in apoptosis | 100 ± 2.3 | apoptosis / necrosis, PC-3 (PC-3 cell line [3]): increase of late apoptosis markers; also recorded: undergo apoptosis highly
Oc1ccc(-c2ccc(F)cc2F)cc1-c1n[nH]c(=S)n1-c1cccc(F)c1 [Compound 12, 5-(2′,4′-Difluoro-4-hydroxybiphenyl-3-yl)-4-(3-fluorophenyl)-2,4-dihydro-3H-1,2,4-triazole-3-thione] | 10.7 ± 0.96 |  | 34 ± 2.1 |  |  | 9.24 ± 1.01 | IC50 (MCF7 cell line): 15 ± 1.3 µM
O=C(NC(=S)NNC(=O)c1cc(-c2ccc(F)cc2F)ccc1O)c1ccccc1 [Compound 8, N-({2-[(2′,4′-Difluoro-4-hydroxybiphenyl-3-yl)carbonyl]hydrazinyl}carbonothioyl)benzamide] | 5.04 ± 1.5 |  | 2.85 ± 3.6 |  |  | 8.07 ± 2 | IC50 (HCT116 cell line; Homo sapiens, HCT-116, MTS assay, 72 h incubation): 3.68 ± 2.1 µM
Oc1ccc(-c2ccc(F)cc2F)cc1-c1n[nH]c(=S)n1-c1cccc(Br)c1 [Compound 14, 4-(3-Bromophenyl)-5-(2′,4′-difluoro-4-hydroxybiphenyl-3-yl)-2,4-dihydro-3H-1,2,4-triazole-3-thione] |  |  |  |  |  | 11.5 ± 1.8 | IC50 PC-3 (PC-3 cell line [2]; MTS assay, 72 h incubation): PCV
Oc1ccc(-c2ccc(F)cc2F)cc1-c1n[nH]c(=S)n1-c1ccc(Br)cc1 [Compound 15, 4-(4-Bromophenyl)-5-(2′,4′-difluoro-4-hydroxybiphenyl-3-yl)-2,4-dihydro-3H-1,2,4-triazole-3-thione] | 145 ± 2.3 | did not show any activity | 145 ± 2.8 | did not show cytotoxic effects | did not result in apoptosis | 43.4 ± 2.72 | apoptosis / necrosis, T47D (T47D cell line [6]): vast late apoptosis; also recorded: largely through late apoptosis; anticancer activity against HCT-116 (in words) (HCT116 cell line): did not show any activity; anticancer activity against T47D (in words) (T47D cell line [4]): demonstrated anticancer activity
